Data reported in PubChem BioAssay AID2305 (GlaxoSmithKline (GSK), 2010).

system: P. falciparum 3D7 growth, pLDH absorbance; test: P. falciparum 3D7 growth inhibition, dose response, strain 3D7 (AID 2305)

SMILES	IC50
CC(=O)Nc1ccc(S(=O)(=O)Nc2ccc(Nc3nc(C)cc(N(C)C)n3)cc2)cc1	1.16 µM
CNC(=O)c1cc(S(=O)(=O)Nc2ccc(OC)cc2)cs1	1.13 µM
CCOC(=O)c1[nH]c(-c2cc(Cl)nc(Cl)c2)nc1NC(=S)NCCCN1CCOCC1	0.93 µM
Cc1ccc2nc(C)cc(Nc3ccccc3O)c2c1	0.79 µM
CC(=O)Nc1ccc(CN2CCC(NC(=O)c3cc(-c4ccc(N(C)C)cc4)cs3)C2)cc1 (centres undefined)	1.17 µM
COc1cc2c(cc1OC)CN(CCCCNC(=O)c1ccc(NC(=O)c3cc(Cl)cc(Cl)c3)cc1)CC2	0.78 µM
CC(C)Cn1cc2c(ccc3nc(N)nc(N)c32)n1	0.3 µM
CCn1c(=O)c(C(=O)Nc2cc(Cl)c(OC)cc2OC)nc2ccccc21	0.24 µM
CCCCCCCN1[C@@H]2CC[C@H]1CC(CCOc1ccnc3ccc(OC)cc13)C2 (some centres undefined)	0.39 µM
COc1ccc2nc3cc(Cl)ccc3c(Nc3ccc(C(=O)O)cc3)c2c1	0.3 µM
Fc1c(CNCC2CCN(CC3CCCCC3)CC2)cccc1C(F)(F)F	0.9 µM
N#Cc1ccc(CN2CCC(Oc3ccc(NC(=O)c4ccccc4)cc3Cl)CC2)cc1	1.26 µM
CC(C)(CNC(=O)C1CCN(Cc2ccc(Cl)cc2)CC1)c1nc(-c2ccc(Cl)c(O)c2)c(-c2ccncc2)[nH]1	0.62 µM
Cc1ccc(NCc2cccc(F)c2)cc1S(=O)(=O)N[C@@H]1CCN(C#N)C1	0.79 µM
CN(C)c1ccc(-c2csc(C(=O)NC3CCCCN(Cc4ccc(C(C)(C)C)cc4)C3)c2)cc1 (centres undefined)	1.11 µM
Cc1c(CNCCN2CCCCC2)c(C(=O)O)c(C)n1Cc1ccc(Cl)cc1	0.42 µM
COc1ccc2c(-c3ccccc3)noc2c1	0.24 µM
CCCN(CCC)C(=S)N=Nc1c(O)[nH]c2ccccc12	0.81 µM
Cc1cc(Nc2cccc(C(F)(F)F)c2)nc2ccc(NC(=O)c3ccc(=O)[nH]c3)cc12	0.49 µM
COc1ccc(-c2cnn3ccc(Nc4cc(OC)c(OC)c(OC)c4)nc23)cc1OC	0.65 µM
Cc1nn(C)c(C)c1CN(Cc1nc(-c2cccc(Oc3ccccc3)c2)oc1C)C1CC1	0.39 µM
CC1(CCCCN2CC=C(c3c[nH]c4ccccc34)CC2)C(=O)Nc2ccccc21 (centres undefined)	0.14 µM
COc1ccc2c(NN=C(C)c3ccccn3)cc(C)nc2c1	0.72 µM
CCOC(=O)c1cncc(/C=C/c2cc(C)cnc2N)c1	0.42 µM
CC(C)c1ccc(CN(C)CCCCNC(=O)c2ccc(NC(=O)c3ccc(Cl)cc3)cc2)cc1	0.99 µM

SMILES	IC50
C=CCOC(=O)N1CCC(CNCc2ccc(-c3cccc(-c4nc5ccccc5[nH]4)c3)cc2)C1 (centres undefined)	0.25 µM
CC(CN1CCN(C)CC1)C(=O)Nc1cccc(-c2cccc(-c3nc4ccc(F)cc4[nH]3)c2)c1 (centres undefined)	0.27 µM
Cc1ccc(CCC(C)NCC(O)c2cccc(C(F)(F)F)c2)cc1 (centres undefined)	0.56 µM
O=S(=O)(NCCN1CCCC1)c1ccc(-c2ccc(CNC3Cc4ccccc4C3)cc2)cc1	0.66 µM
O=C(/C=C/c1ccc(Cl)c(Cl)c1)NC1CCC(CN2CCC(Cc3cc4ccccc4[nH]3)CC2)CC1 (centres undefined)	0.51 µM
O=C(NC1CCN(Cc2ccccc2O)C1)c1cccc(C(F)(F)F)c1 (centres undefined)	0.73 µM
CNCCCCCCOc1ccc(CC(C)NCC(O)c2cccc(C(F)(F)F)c2)cc1 (centres undefined)	0.88 µM
Cn1nccc1C(=O)NCCNCc1ccc(-c2ccc(-c3nc4ccc(C(F)(F)F)cc4[nH]3)s2)cc1	0.19 µM
COc1ccc(CC2(c3ccc(F)cc3)N=C(N)N(CCCc3ccccc3)C2=O)cc1 (centres undefined)	0.61 µM
Cc1cccc(C(O)CNc2ccnc(Nc3cccc(-c4csc(C)n4)c3)n2)c1 (centres undefined)	0.68 µM
O=C(Nc1cccc(C2=NCCN2)c1)Nc1cccc(C2=NCCN2)c1	0.42 µM
Clc1ccc2c(NN=Cc3cccs3)ccnc2c1	0.92 µM
O=[N+]([O-])c1cccc(CNCC2CCN(CCc3ccccc3)CC2)c1	0.78 µM
COCCNc1nc(N2CCC(CNC(=O)c3ccc(-c4ccc(C(=O)N(C)C)cc4C)cc3)CC2)nc2cc(OC)c(OC)cc12	1.02 µM
Cc1cc(N[C@@H](Cc2ccccc2)C(=O)NCCCOC(C)C)nc(NCCc2ccc(F)cc2)n1	0.93 µM
CCOC(=O)c1ccc(NC(=O)NCCCC2CCCN(CCCCCNC(=O)/C=C/c3ccc(Cl)c(Cl)c3)C2)cc1 (centres undefined)	0.86 µM
COc1ccc(C=CC(=O)Nc2ccc(N3CCCC3)cc2)cc1	1.28 µM
COc1cc([N+](=O)[O-])ccc1NC(=O)c1cc(Cl)ccc1O	1.14 µM
C[C@@H](CC1CCCCC1)OC(=O)N(C)[C@@H]1CCN(C#N)C1	0.62 µM
CC(CN1CCN(C)CC1)C(=O)Nc1ccc(-c2cccc(-c3nc4ccccc4[nH]3)c2)cc1 (centres undefined)	0.57 µM
COC(=O)c1ccc(C(=O)NCCCCN2CCC(c3ccc4c(c3OC)CCCC4)CC2)cc1-c1ccc(C(F)(F)F)cc1	1.15 µM
O=C(Cc1cccs1)NCC(c1ccccc1Cl)c1c[nH]c2ccccc12 (centres undefined)	1.15 µM
CC(C)Cn1ncc2c3c(N)nc(N)nc3ccc21	0.16 µM
Cc1c(C(=O)NC2CCC(CN3CCC(c4c[nH]c5ccccc45)CC3)CC2)cnn1-c1c(Cl)cc(Cl)cc1Cl (centres undefined)	0.71 µM
COc1ccc(NC(=O)[C@H](CC(C)C)Nc2cc(C)nc(Nc3ccccc3)n2)cc1	0.87 µM

SMILES	IC50
CCCc1cnc2nc(N)nc(N)c2c1C	1.12 µM
O=C1CCCC1Sc1nc2ccccc2c(=O)n1-c1ccc(Cl)c(Cl)c1 (centres undefined)	0.73 µM
c1cc(-c2ccc(CNCCCn3ccnc3)cc2)cc(-c2nc3ccccc3[nH]2)c1	0.11 µM
COc1c(C=NNc2nc(Nc3ccccc3)nc(Nc3ccccc3)n2)ccc(Br)c1O	0.72 µM
C=CCOC(=O)N1CCC(CNCc2ccc(-c3cccc(-c4nc5ccc(F)cc5[nH]4)c3)cc2)C1 (centres undefined)	0.14 µM
c1ccc(CCNCc2ccc(-c3ccc(CNC4CCN(Cc5ccccc5)CC4)cc3)nc2)cc1	0.45 µM
O=C(Cc1cccnc1)Nc1cccc(-c2cccc(-c3nc4ccc(C(F)(F)F)cc4[nH]3)c2)c1	0.68 µM
Cc1ccoc1C(=O)Nc1cccc(-c2cccc(-c3nc4ccc(C(F)(F)F)cc4[nH]3)c2)c1	0.61 µM
Cc1cc(-c2ccc(CNC3CCN(C)CC3)cc2)ccc1S(=O)(=O)NCc1ccccc1	0.85 µM
COc1ccc(NC(=O)[C@H](Cc2ccccc2)Nc2cc(C)nc(NCCc3ccccc3OC)n2)cc1	0.53 µM
Nc1c(I)cc(C(=O)Nc2ccc3nc4c(c(N)c3c2)CCCC4)cc1I	0.14 µM
CC1CCN(Cc2c(O)ccc3c(CN4CCC(C)CC4)c(O)ccc23)CC1	0.13 µM
O=C(Nc1cccc(-c2ccc(CN3CCCC3)cc2)c1)c1ccc(F)cc1	1.08 µM
Cc1[nH]c(-c2ccc(F)cc2)cc1C(=O)NC1CCN(Cc2ccccc2)CC1	1.13 µM
CC[C@H]1CN2CC[C@@H]1C[C@H]2[C@H](O)c1cc(-c2ccc(F)cc2)nc2ccc(O)cc12	0.14 µM
CCOc1c(Br)cc(Br)cc1CNCCCCNc1nc2ccccc2[nH]1	0.39 µM
COc1cc(NC(=O)/C=C/c2cccc3ccoc23)ccc1OCCN(C(C)C)C(C)C	1.04 µM
C=CCOC(=O)N1CCC(CNCc2cccc(-c3cccc(-c4nc5c(C)cccc5[nH]4)c3)c2)C1 (centres undefined)	0.11 µM
O=C(Nc1ccc(Cn2ncc(N3CCCNCC3)c(Cl)c2=O)cc1)Nc1cc(Cl)cc(Cl)c1	0.87 µM
CCN(CC)CCN(Cc1ccc(-c2ccc(C(F)(F)F)cc2)cc1)C(=O)Cn1c(CCc2c(F)ccc(F)c2F)nc(=O)c2ccccc21	0.24 µM
c1cn(CCCNc2ncc(-c3ccsc3)c(-c3nccs3)n2)cn1	0.65 µM
COc1ccc(NC(=O)c2ccc3[nH]c(-c4ccc(Cl)cc4)cc3c2)cc1OCCN(C)C	0.81 µM
COc1ccc2nccc([C@@H](O)CN3CCC(NCc4cc5cccc(OCc6ccccc6)c5[nH]4)CC3)c2c1	0.9 µM
COc1ccc(C2CC(=O)C3=C(C2)NC(C)=C(C(=O)OC2CCCC2)C3c2cccc(O)c2)cc1OC (centres undefined)	0.22 µM
COc1ccc(CCNCCCCCCNCCCc2ccc(Cl)cc2)cc1OC	0.95 µM

SMILES	IC50
CCOC(=O)C1=C(C)NC(Cn2ccnc2)=C(C(=O)OCC)C1c1ccc(C(C)(C)C)cc1 (centres undefined)	0.81 µM
Cn1nc(-c2ccc(NC(=O)Nc3ccc4ccccc4c3)c(F)c2)c2cnc(NCCN3CCOCC3)nc21	1.02 µM
CCOc1cc(C(=O)NCCc2ccc(Cl)c(Cl)c2)ccc1-c1nc2ccc(Cl)cc2[nH]1	0.89 µM
CCCCCCCN(Cc1ccc(OC(C)(C)C(=O)OCC)cc1)C(=O)Nc1ccccc1OC(F)(F)F	0.97 µM
CC(C)N(C)C(=O)n1cnc(S(=O)(=O)C2C[C@@H]3CC[C@H]2C3)n1 (some centres undefined)	0.06 µM
COc1cccc(CC(=O)N2CCC(n3c(C)nc4ccc(F)cc43)CC2)c1	0.91 µM
O=C(O)c1cc(C(F)(F)F)co1	0.83 µM
COc1nc2c(N3CCN(CCNCc4ccc5c(n4)NC(=O)CO5)CC3)ccnc2cc1F	0.76 µM
Cc1ccc(-c2nc3ccc(C(=O)NC4CCN(Cc5ccccc5)CC4)cc3[nH]2)cc1	0.74 µM
FC(F)(F)c1cccc(N2CCC(CN3CCC(c4c[nH]c5ccccc45)CC3)CC2)n1	0.98 µM
NC1=NC2(CCCCC2)N(OCC2CCCCC2)C(N)=N1	0.15 µM
CC(C)Cc1cn(-c2nc(-c3nc4ccccc4[nH]3)cs2)c2cc(Cl)ccc12	0.48 µM
O=C(Nc1ccc(Cn2ncc(N3CCCNCC3)c(Cl)c2=O)cc1)Nc1ccc(C(F)(F)F)cc1	0.73 µM
CCCCN(CCCC)CCCN(CCCN(CCCC)CCCC)c1cc(C)nc(Nc2ccc3cc(Br)ccc3c2)n1	0.32 µM
CC(C)CCN1CCC(Oc2cccc(NC(=O)c3ccc(C(F)(F)F)cc3)c2)CC1	0.63 µM
CS(=O)(=O)NCCCNCc1ccc(-c2cccc(-c3nc4ccc(F)cc4[nH]3)c2)cc1	0.8 µM
O=C(Cn1c(CCc2cccc(F)c2F)cc(=O)c2ccccc21)N(Cc1ccc(-c2ccc(C(F)(F)F)cc2)cc1)C1CCN(CCN2CCOCC2)CC1	0.72 µM
COc1ccc2c(c1)Sc1ccccc1C(N1CCN(CCO)CC1)C2 (centres undefined)	1.39 µM
O=C(N[C@@H](CC1CCCCC1)C(=O)NCc1cccc2ccccc12)c1ccc(O)c(-c2ccc(Cl)c(Cl)c2)c1	0.22 µM
O=C(/C=C/c1cccc(Cl)c1)Nc1ccc2nc(CN3CCCC3)ccc2c1	0.26 µM
COc1ccc(C(=O)N2CCC3(CC2)C(=O)N(CC(=O)NCC2CCCCC2)CN3c2ccccc2)cc1	0.27 µM
CN1CCN(c2ccc(Nc3c(C(N)=O)cnc4cc(-c5ccoc5)ccc34)cc2)CC1	0.81 µM
CC(=O)Nc1ccc(C(=O)NC2CCN(c3ccnc4cc(Cl)ccc34)CC2)cc1	0.36 µM
COc1cc(Cc2cnc(N)nc2N)cc(OCCCOc2ccccc2)c1OC	1.08 µM
